This is an account of results in ChEMBL document CHEMBL3045294, “Synthesis, anticonvulsant and toxicity screening of thiazolylthiadiazole derivatives” (Med Chem Res, 2011).

Series [1] deals with Mus musculus. The experiment in a line: Hepatoxicity in Mus musculus albino (mouse) assessed as effect on SGOT level in serum at 3 to 30 mg/kg, ip. The format is toxicity, organism-based. The arrangement: dose 3-30 mg/kg, route intraperitoneal. Conditions: in vivo.
In series [2] the test system is Mus musculus. Description: Hepatoxicity in Mus musculus albino (mouse) assessed as effect on SGPT level in serum at 3 to 30 mg/kg, ip. The note with it: in vivo. The arrangement: dose 3-30 mg/kg, route intraperitoneal. In kind it is toxicity, organism-based.
For series [3], the system named is Mus musculus. Description: Hepatoxicity in Mus musculus albino (mouse) assessed as effect on alkaline phosphatase level in serum at 3 to 30 mg/kg, ip. The arrangement: dose 3-30 mg/kg, route intraperitoneal. The note with it: in vivo. The format is toxicity, organism-based.
Series [4] is filed under the species Mus musculus. Description: Protective index, ratio of TD50 for Mus musculus albino (mouse) to ED50 for Mus musculus albino (mouse) by maximal electroshock-induced seizures test. In kind it is functional.
In series [5] the test system is Mus musculus. Description: Protective index, ratio of TD50 for Mus musculus albino (mouse) to ED50 for Mus musculus albino (mouse) by subcutaneous pentylenetetrazol-induced seizures test. In kind it is functional.
The subject of series [6] is Mus musculus. Description: Anticonvulsant activity in ip dosed Mus musculus albino (mouse) assessed as protection against subcutaneous pentylenetetrazol-induced seizures. The format is functional.
The test system of series [7] is Mus musculus. The experiment in a line: Anticonvulsant activity in ip dosed Mus musculus albino (mouse) assessed as protection against maximal electroshock-induced seizures. In kind it is functional.
Series [8] can be described thus: Neurotoxicity in ip dosed Mus musculus albino (mouse) after 4 hr rotorod test. In kind it is toxicity, organism-based. Conditions: albino, in vivo. In general terms: The rotarod test checks motor coordination on a turning rod.
Series [9] can be described thus: Neurotoxicity in ip dosed Mus musculus albino (mouse) after 0.5 hr rotorod test. In kind it is toxicity, organism-based. Conditions: albino, in vivo.
For series [10], the system named is Mus musculus. Description: Anticonvulsant activity in ip dosed Mus musculus albino (mouse) assessed as protection against maximal electroshock-induced seizures after 4 hr. The format is functional. Conditions: read-out: MED. (In general: Protection in the maximal electroshock model is a classic sign of anticonvulsant action.)
Series [11] has as its system Mus musculus. The experiment in a line: Anticonvulsant activity in ip dosed Mus musculus albino (mouse) assessed as protection against maximal electroshock-induced seizures after 0.5 hr. In kind it is functional. Conditions: read-out: MED.
Series [12] relates to Mus musculus. Description: Anticonvulsant activity in Mus musculus albino (mouse) assessed as protection against subcutaneous pentylenetetrazol-induced seizures at 300 mg/kg, ip after 4 hr. In kind it is functional, organism-based. Set-up: dose 300 mg/kg.
The test system of series [13] is Mus musculus. The experiment in a line: Anticonvulsant activity in ip dosed Mus musculus albino (mouse) assessed as protection against subcutaneous pentylenetetrazol-induced seizures after 0.5 hr. In kind it is functional. The note with it: read-out: MED.

The source made the active and inactive calls. No cut-off for these calls is given here.

Consider `COc1ccc(Nc2nnc(Nc3nc(-c4ccc(Br)cc4)cs3)s2)cc1`, for which the Activity entry with Mus musculus [1], with Mus musculus [2] and in the series with Mus musculus [3] was “Toxic” throughout. The “Ratio TD50/ED50” value came to 25.8 in the series filed under Mus musculus [4] and 8.9 in the series on Mus musculus [5]. Also, the ED50 in the series with Mus musculus [6] came to 79.4 mg/kg; with Mus musculus [7], 27.6 mg/kg. The MTD at 4 h in series [8] worked out at 300 mg/kg. For the same molecule, the MTD at 0.5 h in [9] was found to be 300 mg/kg. Also, the TD50 at 0.5 h in series [9] was 713 mg/kg. Moreover, the minimal effective dose in the series with Mus musculus [10] came to 100 mg/kg; with Mus musculus [11], 30 mg/kg; in the series on Mus musculus [13] it was 100 mg/kg. In the series with Mus musculus [12], the result was inactive.

The ED50 is the midpoint of the dose-response relation. Broadly, the TD50 is the dose at which the toxic effect under study appears in half of the subjects. Lower therefore signals harm at a small dose.
